Laboratory results taken from US10519152B2, “Compounds and their use in treating cancer” (AstraZeneca AB, priority 2017, dated 2019).

Target: T1, Estrogen Receptor (ERα) in MCF-7 human ductal carcinoma breast cell line (Homo sapiens, UniProt P03372)
T1 construct: endogenous in cells; host or cells: MCF-7
T1 sequence (P03372 1-595): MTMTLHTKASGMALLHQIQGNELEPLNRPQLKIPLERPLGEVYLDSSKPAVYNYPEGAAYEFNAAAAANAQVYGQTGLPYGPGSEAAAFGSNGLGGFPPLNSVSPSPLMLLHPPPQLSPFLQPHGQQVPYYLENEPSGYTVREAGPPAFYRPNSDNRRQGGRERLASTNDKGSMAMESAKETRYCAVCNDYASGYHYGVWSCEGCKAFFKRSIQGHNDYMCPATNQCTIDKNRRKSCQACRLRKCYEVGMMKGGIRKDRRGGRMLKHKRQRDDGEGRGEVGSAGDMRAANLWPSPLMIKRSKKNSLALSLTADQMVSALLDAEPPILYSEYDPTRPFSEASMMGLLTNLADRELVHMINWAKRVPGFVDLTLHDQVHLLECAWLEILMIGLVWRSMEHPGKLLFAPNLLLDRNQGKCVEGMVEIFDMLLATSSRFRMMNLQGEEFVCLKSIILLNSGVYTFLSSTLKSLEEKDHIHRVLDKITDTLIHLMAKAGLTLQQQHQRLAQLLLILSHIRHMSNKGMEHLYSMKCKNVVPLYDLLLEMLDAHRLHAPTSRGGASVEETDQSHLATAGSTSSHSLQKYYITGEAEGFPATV
Experiment: MCF-7 ER degradation assay (cell based immuno-fluorescence)
Details: MCF-7 cells; for ER degradation ≥ 90% at 0.3 μM: ER degradation by fulvestrant at 0.3 μM is defined as 100%; for DC50: 18-22 hours incubation, 50% reduction of ERα expression, single experiment or average of two or more, read-out: MCF-7 ER degradation IC50
Description: MCF-7 ER Degradation Assay
The ability of compounds to down-regulate Estrogen Receptor (ER) numbers was assessed in a cell based immuno-fluorescence assay using the MCF-7 human ductal carcinoma breast cell line. MCF-7 cells were revived directly from a cryovial (approx 5×10^6 cells) in Assay Medium (phenol red free Dulbecco's Modified Eagle's medium (DMEM); Sigma D5921) containing 2 mM L-Glutamine and 5% (v/v) Charcoal/Dextran treated foetal calf serum. Cells were syringed once using a sterile 18 G×1.5 inch (1.2×40 mm) broad gauge needle and cell density was measured using a Coulter Counter (Beckman). Cells were further diluted in Assay Medium to a density of 3.75×10^4 cells per mL and 40 μL per well added to transparent bottomed, black, tissue culture-treated 384 well plates (Costar, No. 3712) using a Thermo Scientific Matrix WellMate or Thermo Multidrop. Following cell seeding, plates were incubated overnight at 37° C., 5% CO2 (Liconic carousel incubator). Test data was generated using the LabCyte Echo™ model 555 compound reformatter which is part of an automated workcell (Integrated Echo 2 workcell). Compound stock solutions (10 mM) of the test compounds were used to generate a 384 well compound dosing plate (Labcyte P-05525-CV1). 40 μL of each of the 10 mM compound stock solutions was dispensed into the first quadrant well and then 1:100 step-wise serial dilutions in DMSO were performed using a Hydra II (MATRIX UK) liquid handling unit to give 40 μL of diluted compound into quadrant wells 2 (0.1 mM), 3 (1 μM) and 4 (0.01 μM), respectively. 40 μL of DMSO added to wells in row P on the source plate allowed for DMSO normalisation across the dose range. To dose the control wells 40 μL of DMSO was added to row O1 and 40 μL of 100 μM fulvestrant in DMSO was added to row O3 on the compound source plate.
The Echo uses acoustic technology to perform direct microplate-to-microplate transfers of DMSO compound solutions to assay plates. The system can be programmed to transfer volumes as low as 2.5 nL in multiple increments between microplates and in so doing generates a serial dilution of compound in the assay plate which is then back-filled to normalise the DMSO concentration across the dilution range. Compounds were dispensed onto the cell plates with a compound source plate prepared as above producing a 12 point duplicate […] dose range with 3-fold dilutions and one final 10-fold dilution using the Integrated Echo 2 workcell. The maximum signal control wells were dosed with DMSO to give a final concentration of 0.3%, and the minimum signal control wells were dosed with fulvestrant to give a final concentration of 100 nM accordingly. Plates were further incubated for 18-22 hours at 37° C., 5% CO2 and then fixed by the addition of 20 μL of 11.1% (v/v) formaldehyde solution (in phosphate buffered saline (PBS)) giving a final formaldehyde concentration of 3.7% (v/v). Cells were fixed at room temperature for 20 mins before being washed two times with 250 μL PBS/Proclin (PBS with a Biocide preservative) using a BioTek platewasher, 40 μL of PBS/Proclin was then added to all wells and the plates stored at 4° C. The fixing method described above was carried out on the Integrated Echo 2 workcell. Immunostaining was performed using an automated AutoElisa workcell. The PBS/Proclin was aspirated from all wells and the cells permeabilised with 40 μL PBS containing 0.5% Tween™ 20 (v/v) for 1 hour at room temperature. The plates were washed three times in 250 μL of PBS/0.05% (v/v) Tween 20 with Proclin (PBST with a Biocide preservative) and then 20 μL of ERα (SP1) Rabbit monoclonal antibody (Thermofisher) 1:1000 in PBS/Tween™/3% (w/v) Bovine Serum Albumin was added. The plates were incubated overnight at 4° C. (Liconic carousel incubator) and then washed three times in 250 μL of PBS/0.05% (v/v) Tween™ 20 with Proclin (PBST). […]

SMILES	ER degradation ≥ 90% at 0.3 μM	DC50
Cc1ncsc1-c1ccc(CNC(=O)[C@@H]2C[C@@H](O)CN2C(=O)[C@@H](NC(=O)COCc2ccc(COc3cc(F)c([C@@H]4c5[nH]c6ccccc6c5C[C@@H](C)N4CC(C)(C)F)c(F)c3)cc2)C(C)(C)C)cc1 [Example 19, (2S,4R)-1-((S)-2-(2-((4-((3,5-difluoro-4-((1R,3R)-2-(2-fluoro-2-methylpropyl)-3-methyl-2,3,4,9-tetrahydro-1H-pyrido[3,4-b]indol-1-yl)phenoxy)methyl)benzyl)oxy)acetamido)-3,3-dimethylbutanoyl)-4-hydroxy-N-(4-(4-methylthiazol-5-yl)benzyl)pyrrolidine-2-carboxamide]	••	3.2 nM
Cc1ncsc1-c1ccc(CNC(=O)[C@@H]2C[C@@H](O)CN2C(=O)[C@@H](NC(=O)CCCCCCNC(=O)/C=C/c2cc(F)c([C@@H]3c4[nH]c5ccccc5c4C[C@@H](C)N3CC(C)(C)F)c(F)c2)C(C)(C)C)cc1 [Example 59, (2S,4R)-1-((S)-2-(7-((E)-3-(3,5-difluoro-4-((1R,3R)-2-(2-fluoro-2-methylpropyl)-3-methyl-2,3,4,9-tetrahydro-1H-pyrido[3,4-b]indol-1-yl)phenyl)acrylamido)heptanamido)-3,3-dimethylbutanoyl)-4-hydroxy-N-(4-(4-methylthiazol-5-yl)benzyl)pyrrolidine-2-carboxamide, Trifluoroacetic Acid]	••	0.8 nM

Continued, values first:

ER degradation ≥ 90% at 0.3 μM	DC50	SMILES
•	0.8 nM	Cc1ncsc1-c1ccc(CNC(=O)[C@@H]2C[C@@H](O)CN2C(=O)[C@@H](NC(=O)COC[C@@H]2CC2COCCOc2cc(F)c([C@@H]3c4[nH]c5ccccc5c4C[C@@H](C)N3CC(C)(C)F)c(F)c2)C(C)(C)C)cc1 (single isomer, unassigned) [Example 124, (2S,4R)-1-[(2S)-2-[[2-[[(1R*2S*)-2-[2-[3,5-Difluoro-4-[(1R,3R)-2-(2-fluoro-2-methyl-propyl)-3-methyl-1,3,4,9-tetrahydropyrido[3,4-b]indol-1-yl]phenoxy]ethoxymethyl]cyclopropyl]methoxy]acetyl]amino]-3,3-dimethyl-butanoyl]-4-hydroxy-N-[[4-(4-methylthiazol-5-yl)phenyl]methyl]pyrrolidine-2-carboxamide]
•	0.5 nM	Cc1ncsc1-c1ccc(CNC(=O)[C@@H]2C[C@@H](O)CN2C(=O)[C@@H](NC(=O)COC[C@@H]2CC2COCCOc2cc(F)c([C@@H]3c4[nH]c5ccccc5c4C[C@@H](C)N3CC(C)(C)F)c(F)c2)C(C)(C)C)cc1 (single isomer, unassigned) [Example 123, (2S,4R)-1-[(2S)-2-[[2-[[(1R*2S*)-2-[2-[3,5-Difluoro-4-[(R,3R)-2-(2-fluoro-2-methyl-propyl)-3-methyl-1,3,4,9-tetrahydropyrido[3,4-b]indol-1-yl]phenoxy]ethoxymethyl]cyclopropyl]methoxy]acetyl]amino]-3,3-dimethyl-butanoyl]-4-hydroxy-N-[[4-(4-methylthiazol-5-yl)phenyl]methyl]pyrrolidine-2-carboxamide]
•	–	Cc1ncsc1-c1ccc(CNC(=O)[C@@H]2C[C@@H](O)CN2C(=O)[C@@H](NC(=O)C2(OCCCOCCCOc3cc(F)c([C@@H]4c5[nH]c6ccccc6c5C[C@@H](C)N4CC(C)(C)F)c(F)c3)CC2)C(C)(C)C)cc1 [Example 135, (2S,4R)-1-((S)-2-(1-(3-(3-(3,5-Difluoro-4-((1R,3R)-2-(2-fluoro-2-methylpropyl)-3-methyl-2,3,4,9-tetrahydro-1H-pyrido[3,4-b]indol-1-yl)phenoxy)propoxy)propoxy)cyclopropane-1-carboxamido)-3,3-dimethylbutanoyl)-4-hydroxy-N-(4-(4-methylthiazol-5-yl)benzyl)pyrrolidine-2-carboxamide]
•	1.8 nM	Cc1ncsc1-c1ccc(CNC(=O)[C@@H]2C[C@@H](O)CN2C(=O)[C@@H](NC(=O)COCC(F)(F)COCCCCCOc2cc(F)c([C@@H]3c4[nH]c5ccccc5c4C[C@@H](C)N3CC(C)(C)F)c(F)c2)C(C)(C)C)cc1 [Example 126, (2S,4R)-1-((S)-2-(2-(3-((5-(3,5-Difluoro-4-((1R,3R)-2-(2-fluoro-2-methylpropyl)-3-methyl-2,3,4,9-tetrahydro-1H-pyrido[3,4-b]indol-1-yl)phenoxy)pentyl)oxy)-2,2-difluoropropoxy)acetamido)-3,3-dimethylbutanoyl)-4-hydroxy-N-(4-(4-methylthiazol-5-yl)benzyl)pyrrolidine-2-carboxamide]
